In PubChem BioAssay AID1963980 (Molecular Pharmacology Branch, DTP, NCI, 2024):

Test system: 475296-252-R-J1-PDC spheroid viability
Assay: Anticancer human tumor 475296-252-R-J1-PDC patient-derived rectal carcinoma cell line growth inhibition [PI3K]
Conditions: spheroids with HUVEC and MSC; for IC50: curve of first compound; for viability, T/C: stronger effect = lower value
Text: Combinatorial screen of targeted agents with the PI3K inhibitors inavolisib, alpelisib, duvelisib, and copanlisib in multi-cell type tumor spheroids
A high-throughput screen of multi-cell type tumor spheroids was designed to identify active combinations of targeted small molecules and PI3K pathway inhibitors. Complex spheroids include a stromal component modeled by human endothelial cells (HUVEC) and fibroblasts modeled by human mesenchymal stem cells (MSCs). The concentration ranges selected for each drug and investigational agent were based upon clinically achievable concentrations if the clinical Cmax of the agent was known.
Compounds. The drugs and investigational agents: inavolisib (NSC800729), alpelisib (NSC765974), duvelisib (NSC772469), copanlisib (NSC816437), ipatasertib (NSC767898), afuresertib (NSC778305), talazoparib (NSC767125), sapanisertib (NSC764658), selumetinib (NSC741078), tovorafenib (DAY101, NSC766906), vemurafenib (NSC761431), ravoxertinib (NSC781343), sotorasib (NSC818433), MRTX1133 (NSC 836407), abemaciclib (NSC 768073), palbociclib (NSC758247), venetoclax (NSC 766270), SY5609 (NSC837396), enzalutamide (NSC755605), and darolutamide (NSC825331), were obtained from the National Cancer Institute (NCI) Developmental Therapeutics Program Chemical Repository. The FDA-approved anticancer drug set is available from the NCI Developmental Therapeutics Program. […] The stock solutions were prepared in dimethyl sulfoxide (DMSO, Sigma-Aldrich, St. Louis, MO, cat. D2650) at 800-fold the tested concentration and stored at -70 degrees C prior to their use. All drugs and investigational agents were tested over a range starting from a high concentration at or near the clinical Cmax and decreasing in half-log increments. If the clinical Cmax for an agent had not been determined, the highest concentration tested was 10 microM.
Cell Culture. All cells were maintained in an incubator at 37 degrees C and 5% CO2 with 95% humidity. The PDC lines were cultured according to standard operating procedures established by the NCI PDMR (https://pdmr.cancer.gov/sops/default.htm). All PDCs were thawed and cultured in Matrigel-coated flasks prepared with a working solution of 1X Ham's F-12 nutrient mix, without supplementation (Invitrogen, Waltham, MA, cat. 11765054), 100 U/mL penicillin-streptomycin (Invitrogen, cat. 15140122), and 2.5% Matrigel (Corning Inc., Corning, NY, cat. 354248) for the first three passages. The 354836-022-R-J1-PDC, 475296-252-R-J1-PDC, and 997726-040-R-J2-PDC lines were cultured in 6A media, which includes advanced DMEM/F-12 (Thermo Fisher Scientific, cat. 12634028), 10 mM HEPES (Thermo Fisher Scientific, cat. 15630080), 1X GlutaMAX supplement (Thermo Fisher Scientific, cat. 35050061), 0.1 mg/mL primocin (InvivoGen, San Diego, CA, cat. ant-pm-2), 10% defined fetal bovine serum, heat inactivated (HyClone Laboratories Inc., Logan, UT, cat. SH30070.03HI), 50% L-WRN conditioned media (ATCC, cat. CRL-3276), 1.25 mM N-Acetyl-L-cysteine (Sigma-Aldrich, cat. A9165), 10 mM nicotinamide (Sigma-Aldrich, cat. N0636), 1X B-27 supplement (Thermo Fisher Scientific, cat. 17504044), 1X N-2 supplement (Thermo Fisher Scientific, cat. 17502048), and 10 microM Y-27632 dihydrochloride (Tocris Bioscience, Bristol, United Kingdom, cat. 1254). The 624824-186-R-J2-PDC line was cultured in 6C/Colon 1B media, which includes all 6A media components plus 50 ng/mL human EGF recombinant protein (Thermo Fisher Scientific, cat. PHG0311). […]
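Also: spheroids exposed to agents for seven days before readout.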

CC(C)NCC(C(=O)N1CCN(c2ncnc3c2C(C)CC3O)CC1)c1ccc(Cl)cc1 (configuration not stated) + Cc1nc(NC(=O)N2CCCC2C(N)=O)sc1-c1ccnc(C(C)(C)C(F)(F)F)c1
IC50 (second compound 0.0316 µM): > 10 µM | IC50 (second compound 0.1 µM): > 10 µM | IC50 (second compound 0.316 µM): > 10 µM | IC50 (second compound 1 µM): > 10 µM | IC50 (second compound 3.16 µM): > 10 µM | IC50 (second compound 10 µM): > 10 µM | viability, T/C (second compound 0.0316 µM, first compound 0.0316 µM): 98% | viability, T/C (second compound 0.0316 µM, first compound 0.1 µM): 90.3% | viability, T/C (second compound 0.0316 µM, first compound 0.316 µM): 92% | viability, T/C (second compound 0.0316 µM, first compound 1 µM): 89.3% | viability, T/C (second compound 0.0316 µM, first compound 3.16 µM): 78.9% | viability, T/C (second compound 0.0316 µM, first compound 10 µM): 70.3% | viability, T/C (second compound 0.1 µM, first compound 0.0316 µM): 89.4% | viability, T/C (second compound 0.1 µM, first compound 0.1 µM): 93.3% | viability, T/C (second compound 0.1 µM, first compound 0.316 µM): 92.7% | viability, T/C (second compound 0.1 µM, first compound 1 µM): 80.3% | viability, T/C (second compound 0.1 µM, first compound 3.16 µM): 62.4% | viability, T/C (second compound 0.1 µM, first compound 10 µM): 58.2% | viability, T/C (second compound 0.316 µM, first compound 0.0316 µM): 93.2% | viability, T/C (second compound 0.316 µM, first compound 0.1 µM): 95.1% | viability, T/C (second compound 0.316 µM, first compound 0.316 µM): 88.3% | viability, T/C (second compound 0.316 µM, first compound 1 µM): 92.5% | viability, T/C (second compound 0.316 µM, first compound 3.16 µM): 68.3% | viability, T/C (second compound 0.316 µM, first compound 10 µM): 58.9% | viability, T/C (second compound 1 µM, first compound 0.0316 µM): 85% | viability, T/C (second compound 1 µM, first compound 0.1 µM): 92.7% | viability, T/C (second compound 1 µM, first compound 0.316 µM): 88.2% | viability, T/C (second compound 1 µM, first compound 1 µM): 90% | viability, T/C (second compound 1 µM, first compound 3.16 µM): 81.3% | viability, T/C (second compound 1 µM, first compound 10 µM): 58.7% | viability, T/C (second compound 3.16 µM, first compound 0.0316 µM): 82.5% | viability, T/C (second compound 3.16 µM, first compound 0.1 µM): 96.6% | viability, T/C (second compound 3.16 µM, first compound 0.316 µM): 88.8% | viability, T/C (second compound 3.16 µM, first compound 1 µM): 89.4% | viability, T/C (second compound 3.16 µM, first compound 3.16 µM): 77.7% | viability, T/C (second compound 3.16 µM, first compound 10 µM): 65.8% | viability, T/C (second compound 10 µM, first compound 0.0316 µM): 96% | viability, T/C (second compound 10 µM, first compound 0.1 µM): 81.3% | viability, T/C (second compound 10 µM, first compound 0.316 µM): 89.3% | viability, T/C (second compound 10 µM, first compound 1 µM): 85% | viability, T/C (second compound 10 µM, first compound 3.16 µM): 77.2% | viability, T/C (second compound 10 µM, first compound 10 µM): 64.3%
